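1) Cells in 96-well plates. 2) Compound, 48 h, 5 concentrations. 3) Linear interpolation between surrounding doses. 4) Unreached endpoint = highest concentration. TGI: total growth inhibition.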
What was measured:
Assay in all cases: DTP human tumour cell line panel, 48 h
786-0 renal = test system: 786-0 renal
A498 renal = test system: A498 renal
A549 NSCLC = test system: A549 NSCLC
ACHN renal = test system: ACHN renal
CAKI-1 renal = test system: CAKI-1 renal
CCRF-CEM leukemia = test system: CCRF-CEM leukemia
COLO 205 colon = test system: COLO 205 colon
EKVX NSCLC = test system: EKVX NSCLC
HCC-2998 colon = test system: HCC-2998 colon
HCT-116 colon = test system: HCT-116 colon
HCT-15 colon = test system: HCT-15 colon
HL-60(TB) leukemia = test system: HL-60(TB) leukemia
HOP-62 NSCLC = test system: HOP-62 NSCLC
HS 578T breast = test system: HS 578T breast
HT29 colon = test system: HT29 colon
IGROV1 ovarian = test system: IGROV1 ovarian
KM12 colon = test system: KM12 colon
LOX IMVI melanoma = test system: LOX IMVI melanoma
M14 melanoma = test system: M14 melanoma
MALME-3M melanoma = test system: MALME-3M melanoma
MCF7 breast = test system: MCF7 breast
MDA-MB-231 breast = test system: MDA-MB-231 breast
MDA-MB-435 = test system: MDA-MB-435
MDA-N = test system: MDA-N
MOLT-4 leukemia = test system: MOLT-4 leukemia
NCI-H226 lung = test system: NCI-H226 lung
NCI-H23 lung = test system: NCI-H23 lung
NCI-H460 lung = test system: NCI-H460 lung
NCI/ADR-RES ovarian = test system: NCI/ADR-RES ovarian
OVCAR-3 ovarian = test system: OVCAR-3 ovarian
OVCAR-4 ovarian = test system: OVCAR-4 ovarian
OVCAR-5 ovarian = test system: OVCAR-5 ovarian
OVCAR-8 ovarian = test system: OVCAR-8 ovarian
PC-3 prostate = test system: PC-3 prostate
RXF 393 renal = test system: RXF 393 renal
SF-295 CNS = test system: SF-295 CNS
SF-539 CNS = test system: SF-539 CNS
SK-MEL-2 melanoma = test system: SK-MEL-2 melanoma
SK-MEL-5 melanoma = test system: SK-MEL-5 melanoma
SK-OV-3 ovarian = test system: SK-OV-3 ovarian
SN12C renal = test system: SN12C renal
SNB-75 CNS = test system: SNB-75 CNS
SR leukemia = test system: SR leukemia
SW-620 colon = test system: SW-620 colon
T-47D breast = test system: T-47D breast
TK-10 renal = test system: TK-10 renal
UACC-257 melanoma = test system: UACC-257 melanoma
UACC-62 melanoma = test system: UACC-62 melanoma

Structure (SMILES): Cc1cc(-c2cccc3ccccc23)c(C#N)c(=S)n1C1OC(CO)C(O)C(O)C1O (stereo not drawn)
- TGI (786-0 renal): > 100 µM
- TGI (A498 renal): > 100 µM
- TGI (A549 NSCLC): > 100 µM
- TGI (ACHN renal): > 100 µM
- TGI (CAKI-1 renal): > 100 µM
- TGI (CCRF-CEM leukemia): > 100 µM
- TGI (COLO 205 colon): > 100 µM
- TGI (EKVX NSCLC): > 100 µM
- TGI (HCC-2998 colon): > 100 µM
- TGI (HCT-116 colon): > 100 µM
- TGI (HCT-15 colon): > 100 µM
- TGI (HL-60(TB) leukemia): > 100 µM
- TGI (HOP-62 NSCLC): > 100 µM
- TGI (HS 578T breast): > 100 µM
- TGI (HT29 colon): > 100 µM
- TGI (IGROV1 ovarian): > 100 µM
- TGI (KM12 colon): > 100 µM
- TGI (LOX IMVI melanoma): > 100 µM
- TGI (M14 melanoma): > 100 µM
- TGI (MALME-3M melanoma): > 100 µM
- TGI (MCF7 breast): > 100 µM
- TGI (MDA-MB-231 breast): > 100 µM
- TGI (MDA-MB-435): > 100 µM
- TGI (MDA-N): > 100 µM
- TGI (MOLT-4 leukemia): > 100 µM
- TGI (NCI-H226 lung): > 100 µM
- TGI (NCI-H23 lung): > 100 µM
- TGI (NCI-H460 lung): > 100 µM
- TGI (NCI/ADR-RES ovarian): > 100 µM
- TGI (OVCAR-3 ovarian): > 100 µM
- TGI (OVCAR-4 ovarian): > 100 µM
- TGI (OVCAR-5 ovarian): > 100 µM
- TGI (OVCAR-8 ovarian): > 100 µM
- TGI (PC-3 prostate): > 100 µM
- TGI (RXF 393 renal): > 100 µM
- TGI (SF-295 CNS): > 100 µM
- TGI (SF-539 CNS): > 100 µM
- TGI (SK-MEL-2 melanoma): > 100 µM
- TGI (SK-MEL-5 melanoma): > 100 µM
- TGI (SK-OV-3 ovarian): > 100 µM
- TGI (SN12C renal): > 100 µM
- TGI (SNB-75 CNS): 47.5 µM
- TGI (SR leukemia): > 100 µM
- TGI (SW-620 colon): > 100 µM
- TGI (T-47D breast): > 100 µM
- TGI (TK-10 renal): > 100 µM
- TGI (UACC-257 melanoma): > 100 µM
- TGI (UACC-62 melanoma): > 100 µM
